IC50 data for seven compounds are collected here from patent US9783573B2, “IAP antagonists” (BRISTOL-MYERS SQUIBB COMPANY, priority 2012, dated 2017).

Each structure is given as a SMILES string.

The target in assay [1] is His-BIR2-3 (125-356, C202A/C213G, XIAP) (Homo sapiens (Human), UniProt P98170, C202A/C213G). The assay is described as follows: XIAP-BIR2-3 Dimeric SMAC Peptide Homogeneous Time Resolved Fluorescence (HTRF) Assay. In kind it is binding. The conditions noted are these: fluorescein labeled dimeric SMAC peptide. How it is done:
D. XIAP-BIR2-3 Dimeric SMAC Peptide Homogeneous Time Resolved Fluorescence (HTRF) Assay
(§1) Assays were performed in black, flat-bottom, 384-well plates.
A general note: In TR-FRET formats the signal depends on donor and acceptor labels being close together.

The target in a further assay is His-BIR3 (241-356, XIAP) (Homo sapiens (Human), UniProt P98170). The assay is described as follows: XIAP-BIR3/SMAC Homogeneous Time Resolved Fluorescence (HTRF) Assay. Particulars: fluorescein labeled SMAC peptide. In kind it is binding. Here is the method: B. XIAP-BIR3/SMAC Homogeneous Time Resolved Fluorescence (HTRF) Assay
as §1

As for `CN[C@@H](C)C(=O)N[C@H](C(=O)N1C[C@@H](NC(=O)c2ccc(C(=O)Nc3ccc4c(c3)CN(C(=O)[C@@H](NC(=O)[C@H](C)NC)C(C)(C)SCC(=O)Nc3nccs3)[C@H](C(=O)N[C@@H]3CCCc5ccccc53)C4)cc2)C[C@H]1C(=O)N[C@@H]1CCCc2ccccc21)C(C)(C)C` [Example 60, N^1-((3S,5S)-1-((S)-3,3-Dimethyl-2-((S)-2-(methylamino)propanamido)butanoyl)-5-(((R)-1,2,3,4-tetrahydronaphthalen-1-yl)carbamoyl)pyrrolidin-3-yl)-N^4-((S)-2-((R)-3-methyl-2-((S)-2-(methylamino)propanamido)-3-((2-oxo-2-(thiazol-2-ylamino)ethyl)thio)butanoyl)-3-(((R)-1,2,3,4-tetrahydronaphthalen-1-yl)carbamoyl)-1,2,3,4-tetrahydroisoquinolin-7-yl)terephthalamide], the IC50 (in general, the point on the concentration scale where inhibition reaches its midpoint) in assay [1] stood at 22 nM; at His-BIR3 (241-356, XIAP), 42 nM.
For the compound `CN[C@@H](C)C(=O)N[C@H](C(=O)N1C[C@@H](NC(=O)c2ccc(C(=O)Nc3ccc4c(c3)CN(C(=O)[C@@H](NC(=O)[C@H](C)NC)C(C)(C)SCC(=O)N3CCOCC3)[C@H](C(=O)N[C@@H]3CCCc5ccccc53)C4)cc2)C[C@H]1C(=O)N[C@@H]1CCCc2ccccc21)C(C)(C)C` [Example 61, N^1-((3S,5S)-1-((S)-3,3-Dimethyl-2-((S)-2-(methylamino)propanamido)butanoyl)-5-(((R)-1,2,3,4-tetrahydronaphthalen-1-yl)carbamoyl)pyrrolidin-3-yl)-N^4-((S)-2-((R)-3-methyl-2-((S)-2-(methylamino)propanamido)-3-((2-morpholino-2-oxoethyl)thio)butanoyl)-3-(((R)-1,2,3,4-tetrahydronaphthalen-1-yl)carbamoyl)-1,2,3,4-tetrahydroisoquinolin-7-yl)terephthalamide], the IC50 came out at 16 nM in assay [1] and 31 nM on His-BIR3 (241-356, XIAP).
Take `CN[C@@H](C)C(=O)N[C@H](C(=O)N1C[C@@H](NC(=O)c2ccc(C(=O)Nc3ccc4c(c3)CN(C(=O)[C@@H](NC(=O)[C@H](C)NC)C(C)(C)SCC(=O)N(C)Cc3cccc(F)c3)[C@H](C(=O)N[C@@H]3CCCc5ccccc53)C4)cc2)C[C@H]1C(=O)N[C@@H]1CCCc2ccccc21)C(C)(C)C` [Example 62, N^1-((3S,5S)-1-((S)-3,3-Dimethyl-2-((S)-2-(methylamino)propanamido)butanoyl)-5-(((R)-1,2,3,4-tetrahydronaphthalen-1-yl)carbamoyl)pyrrolidin-3-yl)-N^4-((S)-2-((R)-3-((2-((3-fluorobenzyl)(methyl)amino)-2-oxoethyl)thio)-3-methyl-2-((S)-2-(methylamino)propanamido)butanoyl)-3-(((R)-1,2,3,4-tetrahydronaphthalen-1-yl)carbamoyl)-1,2,3,4-tetrahydroisoquinolin-7-yl)terephthalamide]: the IC50 came out at 58 nM in assay [1] and 73 nM against His-BIR3 (241-356, XIAP).
For `CN[C@@H](C)C(=O)N[C@H](C(=O)N1C[C@@H](NC(=O)c2ccc(C(=O)Nc3ccc4c(c3)CN(C(=O)[C@@H](NC(=O)[C@H](C)NC)C(C)(C)SCC(=O)NCCO)[C@H](C(=O)N[C@@H]3CCCc5ccccc53)C4)cc2)C[C@H]1C(=O)N[C@@H]1CCCc2ccccc21)C(C)(C)C` [Example 63, N^1-((3S,5S)-1-((S)-3,3-Dimethyl-2-((S)-2-(methylamino)propanamido)butanoyl)-5-(((R)-1,2,3,4-tetrahydronaphthalen-1-yl)carbamoyl)pyrrolidin-3-yl)-N^4-((S)-2-((R)-3-((2-((2-hydroxyethyl)amino)-2-oxoethyl)thio)-3-methyl-2-((S)-2-(methylamino)propanamido)butanoyl)-3-(((R)-1,2,3,4-tetrahydronaphthalen-1-yl)carbamoyl)-1,2,3,4-tetrahydroisoquinolin-7-yl)terephthalamide] the same measures were 5 nM and 17 nM.
With `CN[C@@H](C)C(=O)N[C@H](C(=O)N1C[C@@H](NC(=O)c2ccc(C(=O)Nc3ccc4c(c3)CN(C(=O)[C@@H](NC(=O)[C@H](C)NC)C(C)(C)SCC(=O)N(C)C)[C@H](C(=O)N[C@@H]3CCCc5ccccc53)C4)cc2)C[C@H]1C(=O)N[C@@H]1CCCc2ccccc21)C(C)(C)C` [Example 64, N^1-((3S,5S)-1-((S)-3,3-Dimethyl-2-((S)-2-(methylamino)propanamido)butanoyl)-5-(((R)-1,2,3,4-tetrahydronaphthalen-1-yl)carbamoyl)pyrrolidin-3-yl)-N^4-((S)-2-((R)-3-((2-(dimethylamino)-2-oxoethyl)thio)-3-methyl-2-((S)-2-(methylamino)propanamido)butanoyl)-3-(((R)-1,2,3,4-tetrahydronaphthalen-1-yl)carbamoyl)-1,2,3,4-tetrahydroisoquinolin-7-yl)terephthalamide], the IC50 came to 10 nM in assay [1] and 14 nM against His-BIR3 (241-356, XIAP).
For `CN[C@@H](C)C(=O)N[C@H](C(=O)N1C[C@@H](NC(=O)c2ccc(C(=O)Nc3ccc4c(c3)CN(C(=O)[C@@H](NC(=O)[C@H](C)NC)C(C)(C)SCCO)[C@H](C(=O)N[C@@H]3CCCc5ccccc53)C4)cc2)C[C@H]1C(=O)N[C@@H]1CCCc2ccccc21)C(C)(C)C` [Example 67, N^1-((3S,5S)-1-((S)-3,3-Dimethyl-2-((S)-2-(methylamino)propanamido)butanoyl)-5-(((R)-1,2,3,4-tetrahydronaphthalen-1-yl)carbamoyl)pyrrolidin-3-yl)-N^4-((S)-2-((R)-3-((2-hydroxyethyl)thio)-3-methyl-2-((S)-2-(methylamino)propanamido)butanoyl)-3-(((R)-1,2,3,4-tetrahydronaphthalen-1-yl)carbamoyl)-1,2,3,4-tetrahydroisoquinolin-7-yl)terephthalamide] the same measures were 6 nM and 14 nM.
As to `CN[C@@H](C)C(=O)N[C@H](C(=O)N1C[C@@H](NC(=O)c2ccc(C(=O)Nc3ccc4c(c3)CN(C(=O)[C@@H](NC(=O)[C@H](C)NC)C(C)(C)SCc3ncc(C(C)(C)C)o3)[C@H](C(=O)N[C@@H]3CCCc5ccccc53)C4)cc2)C[C@H]1C(=O)N[C@@H]1CCCc2ccccc21)C(C)(C)C` [Example 68, N^1-((S)-2-((R)-3-(((5-(tert-Butyl)oxazol-2-yl)methyl)thio)-3-methyl-2-((S)-2-(methylamino)propanamido)butanoyl)-3-(((R)-1,2,3,4-tetrahydronaphthalen-1-yl)carbamoyl)-1,2,3,4-tetrahydroisoquinolin-7-yl)-N^4-((3S,5S)-1-((S)-3,3-dimethyl-2-((S)-2-(methylamino)propanamido)butanoyl)-5-(((R)-1,2,3,4-tetrahydronaphthalen-1-yl)carbamoyl)pyrrolidin-3-yl)terephthalamide], the IC50 in assay [1] was found to be 160 nM; against His-BIR3 (241-356, XIAP) it was 260 nM.
